Laboratory results: US12419832B2, “Intratumoral delivery of bortezomib” (Cognos Therapeutics, Inc., priority 2018, dated 2025)
“Also recorded” adds a separate entry of the source. Where two headings read alike, the source gives them in different places.

Columns and labels:
[1] = system: human glioma cells (U251, LN229, U87); assay: MTT cytotoxicity assay on glioma cells; format: cell-based; details: Glioma cell, 3 cell lines (U251, LN229, U87), 48 hours, read-out: median inhibitory concentrations (IC50)
Description: Glioma cells (U251, LN229, U87) were treated with bortezomib (0-25 nM) for 48 hours. Cell death was evaluated using the MTT assay. O.D.=optical density.
Human glioma cells (U87, U251, and LN229) were cultured in DMEM, supplemented with 10% fetal bovine serum and 1% penicillin-streptomycin, and incubated in 5% CO2. Bortezomib (Velcade) was purchased from the University of Southern California/Norris Comprehensive Cancer Center pharmacy. Bortezomib has been approved by the FDA for clinical use. The sterile 14-day Alzet mini-osmotic pump (model 2002) was used in these experiments. The Alzet mini-osmotic pump has a reservoir volume of 200 μl and a delivery rate of 0.5 μl/hour. The brain infusion kit, which includes the pump and distribution tubing, was purchased from DURECT Corporation.
Glioma cells (5000 cells/well) were seeded in 96-well plates. After 24 hours, bortezomib was added to the cells at different concentrations, and the cells were incubated for 48 hours. The monotetrazolium (MTT) assay was performed according to the manufacturer's protocol (Calbiochem EMD, Millipore). Absorbance was measured using a microtiter plate reader (Molecular Devices) at 490 nm. Percent viability was calculated relative to untreated control cells. All experiments were performed in triplicate.

[2] = system: U251 glioma cells implanted subcutaneously; assay: Subcutaneous glioma xenograft tumor model, U251; format: in vivo, athymic nu/nu mice; details: IV 0.3 mg/kg twice per week (36 μg total), vs vehicle
Description: (§1) FIGS. 2A-2B. […] FIG. 2A: Glioma cells (U251) were implanted subcutaneously into athymic nu/nu mice. Fourteen days later, intravenous treatment was initiated: vehicle treatment (circle); bortezomib (36 μg total) (square). Subsequently animals were left untreated for 14 days. […] FIG. 2B: Glioma cells (U87) were implanted subcutaneously in athymic nude mice. Bortezomib was administered at a total dose of 36 μg by intravenous injection beginning on Day 30 post-implantation.
(§2) The animal protocol was approved by the institutional animal care and use committee of the University of Southern California. All mice were maintained in a pathogen-free environment throughout the experiment. For the subcutaneous tumor xenograft model, 5×10^5 human glioma cells (U87, U251, and LN229) suspended in a volume of 50 μl phosphate-buffered saline were implanted into the right flank of 30 athymic nude mice (Harlan, Inc.). Tumors were palpable approximately 2-3 weeks post-implantation. The animals were divided randomly into 5 groups of 6 mice, and treatment was initiated according to protocol.

[3] = system: U87 glioma cells implanted subcutaneously; assay: Subcutaneous glioma xenograft tumor model, U87; format: in vivo, athymic nude mice; details: 0.3 mg/kg (36 μg total), vs vehicle
Description: as §1, §2

[4] = system: U251 glioma cells implanted intracranially; assay: Orthotopic intracranial glioma model, U251, survival; format: in vivo, athymic nude mice; details: for median survival time: IT pump, control 23 days
Description: (§3) FIGS. 3A-3B. […] Human glioma cells U251 (FIG. 3A) or U87 (FIG. 3B) were implanted intracranially; subsequently, mice were given bortezomib (36 μg total) (square) or vehicle (circle) IV. The brain tumor size was monitored by optical imaging weekly, and animal survival data were analyzed by Kaplan-Meier plot.
FIG. 4. Bortezomib (BZM) administered intratumorally (IT) is effective in increasing survival. Glioma cells (U251) were implanted intracranially. After 10 days, animals were treated IT with vehicle; bortezomib IV (36 μg total); bortezomib IT (low dose, 0.36 μg total); bortezomib IT (medium dose, 1.2 μg total); and bortezomib IT (high dose, 3.6 μg total). […] CED=convection-enhanced delivery.
(§4) Briefly, athymic nude mice were anesthetized with ketamine and xylazine (10 mg/kg) and fixed into a stereotactic head frame (Harvard Apparatus). A 1.5-mm bur hole was drilled 1 mm anterior to the coronal suture on the right hemisphere and 2 mm lateral from the midline. A Hamilton syringe fixed onto the head frame was used to inject human glioma cells (2×10^5 cells/5 μl) into the right frontal lobe of the brain. The skin incision was then closed with 4-0 silk thread. The appropriate medications were provided to reduce pain.
(§5) Seven to 10 days after tumor cell implantation, imaging was used to confirm brain tumor formation. Briefly, mice were anesthetized using 2% isoflurane gas and injected intravenously (IV) with 50 mg/kg of D-Luciferin (Perkin Elmer) and placed into the IVIS Spectrum (Caliper Life Sciences). Analysis was performed with Living Image software (Caliper Life Sciences), in which circular regions of interest drawn over the tumor site were used, and results were reported as total flux (photons/second). Based on total flux, animals were randomly divided into experimental groups.
Once tumors were identified, approximately 7 days after intracranial tumor cell implantation, Alzet mini-osmotic pumps were filled with the desired dose of reagent and implanted. A plastic tube primed with the agent was used to connect the infusion kit to the brain. The assembled delivery system was stored at 4° C. overnight before implantation. Bortezomib was delivered into the tumor using the Alzet mini-osmotic pumps.
To anchor the pump to the animal, an incision was made in the scalp alongside the previous surgical scar. The caudal edge of the incision was pulled, and the connective tissues were separated. Subsequently a subcutaneous tunnel was prepared. The Alzet mini-osmotic pump was pushed backward to adjust the location of the brain infusion kit directly above the hole in the skull that had been previously drilled for tumor cell implantation. The infusion kit (plastic tubing) was gently inserted into the formed tumor. The plastic platform end was fixed onto the skull by using instant super glue. The area around the skin incision was sterilized and sutured with 4-0 silk thread. The contents of the Alzet mini-osmotic pump were released into the tumor at a rate of […]. The treatment groups (6 mice per group) were listed as the following: 1) pump-administered vehicle (saline); 2) bortezomib (0.3 mg/kg=36 μg in total) given by intravenous injection; 3) low-dose bortezomib (0.003 mg/kg=0.36 μg in total) intracranial pump delivery; 4) medium-dose bortezomib (0.01 mg/kg=1.2 μg in total) intracranial pump delivery; and 5) high-dose bortezomib (0.03 mg/kg=3.6 μg in total) intracranial pump delivery. In summary, bortezomib was administered for 14 days, either IV at 0.3 mg/kg twice weekly (total 4 injections in 14 days), or continuously into the intracranial tumor bed by using the Alzet mini-osmotic pump. After the treatment was completed (14 days), animals were left untreated until the appearance of neurological and behavioral abnormalities requiring euthanasia. Animals treated with vehicle received saline by Alzet mini-osmotic pump.
Survival data were plotted using the Kaplan-Meier method. […]

[5] = system: U87 glioma cells implanted intracranially; assay: Orthotopic intracranial glioma model, U87, survival; format: in vivo, athymic nude mice; details: IV 36 μg total
Description: as §3, §4
as §5, with “Based on total flux, animals were randomly divided into experimental groups.” left out

20S proteasome = 20S proteasome activity assay on lysates of tumor-bearing brains; format: in vivo, mice; details: IT 3.6 μg total, Alzet pump
Description: FIG. 5. […] Animals were treated by intratumorally administration of bortezomib (3.6 μg total) using the Alzet pump. After 5, 7 or 10 days, animals were euthanized, tumor-bearing brains were harvested, and lysates prepared for the proteasome activity assay. Control values were obtained from vehicle-treated brains at 5, 7, and 10 days.
Brain lysates were prepared by homogenization of tumor-bearing brains in phosphate-buffered saline. Supernatants were collected by centrifugation at 12,000 rpm for 15 minutes at 4° C. Total protein concentration was measured by the BCA protein assay, and 100 μg of total protein was used to measure proteasome activity. The 20S proteasome assay kit (EMD Millipore) was used according to manufacturer's instructions. The assay is based on detection of fluorophore 7-amino-4-methylcoumarin (AMC) after cleavage from the labeled substrate LLVYAMC. The free AMC fluorescence was quantified using 380-nm excitation and 460-nm emission filters.

[6] = Dose escalation, intracerebral osmotic mini-pump, normal nontumor-bearing mice
Description: The doses of bortezomib used in these experiments were determined by injecting escalating doses of the drug intracerebrally (delivered by osmotic mini-pump) into normal, nontumor-bearing mice. […] In FIG. 4, treatment groups (n=6) were vehicle (saline-filled pump); bortezomib given IV (36 μg in total); bortezomib IT (low dose, 0.36 μg); bortezomib IT (medium dose, 1.2 μg); and bortezomib IT (high dose, 3.6 μg).

[7] = system: intracranial glioma tumor; assay: Histological investigation of tumor-bearing brains (H & E, TRA 1-85); format: in vivo, mice
Description: FIG. 6. […] Tumor-bearing animals were treated with intratumoral-administered bortezomib (A) or IV-administered-bortezomib (B). After 5 days the animals were euthanized, brains harvested, and stained with hematoxylin/eosin.
Tissues used for histological investigation were fixed in 10% formalin, embedded in paraffin, and stained with H & E. The antibody TRA-1-85/CD147 (RD Systems) was used to stain for human cells.

malignant gliomas / GBM = details: cited from earlier work
[8] = system: glioma stem cells and normal stem cells; details: cited from earlier work

In the case of `CC(C)C[C@H](NC(=O)[C@H](Cc1ccccc1)NC(=O)c1cnccn1)B(O)O` [bortezomib, [(1R)-3-methyl-1-[[(2S)-3-phenyl-2-(pyrazine-2-carbonylamino)propanoyl]amino]butyl]boronic acid], the IC50 [1] is reported as 5 to 10 nM, the tumor growth rate [2] is reported as “significantly effective in delaying tumor growth” and the tumor growth rate ([2]; listed as Bortezomib) is reported as “significantly (p=0.0145) decreased tumor growth rate”. The “tumor growth rate / tumor progression” value [3] was “delayed tumor progression”, the “tumor growth rate / tumor progression” value ([3]; listed as Bortezomib) was “significantly (p=0.041) decreased tumor growth rate” and the increase in survival ([4]; IT administration, median survival 23 to 37 days) was “approximately 40%”. The “survival, IT vs IV (36 μg)” value ([4]; U251 intracranial, IT high dose 3.6 μg total, p=0.0022) was “significantly enhanced survival”, the “survival, IT vs IV (36 μg)” value ([4]; U251 intracranial, IT low dose 0.36 μg total, p=0.1104) was “not significant” and the “survival, IT vs IV (36 μg)” value ([4]; U251 intracranial, IT medium dose 1.2 μg total, p=0.0005) was “significantly enhanced survival”. For the same compound, the median survival time ([4]; U251 intracranial, high dose 3.6 μg total) was 37 days, the median survival time ([4]; U251 intracranial, medium dose 1.2 μg total) was 34 days and the survival vs vehicle ([4]; U251 intracranial, IV 0.3 mg/kg (36 μg total), 0.3 mg/kg) was “no significant differences in survival time; also recorded: not significant”. The survival vs vehicle [5] was “no significant differences”, the “proteasome activity in tumor-bearing brain vs vehicle” value (“proteasome activity … vs vehicle” below) (20S proteasome; 5 days, p=0.03) was “significantly reduced proteasome activity” and the “proteasome activity … vs vehicle” value (20S proteasome; 7 days, p=0.03) was “significantly reduced proteasome activity”. For the same compound, the “proteasome activity … vs vehicle” value (20S proteasome; 10 days, p=0.0048) was “significantly reduced proteasome activity”, the toxicity ([6]; 7.2 μg) was “toxic and fatal” and the toxicity ([6]; 18.0 μg) was “toxic and fatal”. For the same compound, the toxicity ([6]; 36.0 μg) was “toxic and fatal”, the “tumor size (surface area), IV-treated animal relative to intratumoral-treated animal” value ([7]; Day 5, IV 36 μg total vs IT 3.6 μg total, H & E) was “approximately ten-fold larger” and the “tumor cell invasion into mouse brain, IV-treatment compared to IT-treated” value ([7]; anti-human antibody TRA 1-85 staining) was “greater tumor cell invasion”. For the same compound, the “microvessel densities vs vehicle-treated mice” value ([7]; data not shown) was “not significantly different”, the “therapeutic benefit, Phase II trial” value (malignant gliomas / GBM; combination with tamoxifen, systemic, patients with malignant gliomas) was “no therapeutic benefit” and the “benefit, Phase II clinical trial” value (malignant gliomas / GBM; combination with vorinostat, bortezomib IV, GBM) was “no benefit”. For the same compound, the cytotoxicity ([8]; glioma stem cells) was “cytotoxic” and the cytotoxicity ([8]; normal stem cells) was “not toxic”.
